Measured values published in patent US7932270B2 (Cytokinetics, Inc., priority 2006, dated 2011).

target: T1, chicken gizzard smooth muscle myosin subfragment-1 chemically crosslinked to cardiac or skeletal actin (Gallus gallus, UniProt P10587); assay: Smooth muscle myosin ATPase dose response assay (pyruvate kinase/horseradish peroxidase/pyruvate oxidase-coupled, amplex red fluorescence); format: biochemical; details: read-out: IC50 Arithmetic Mean
T1 construct: chicken gizzard smooth muscle myosin subfragment-1; from tissue; host or cells: chicken gizzard
T1 sequence (P02607 2-151): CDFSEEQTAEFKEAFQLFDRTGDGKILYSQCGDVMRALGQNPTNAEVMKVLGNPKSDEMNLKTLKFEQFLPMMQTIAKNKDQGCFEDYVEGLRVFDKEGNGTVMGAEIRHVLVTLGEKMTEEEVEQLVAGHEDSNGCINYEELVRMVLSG
T1 sequence (P10587 84-789): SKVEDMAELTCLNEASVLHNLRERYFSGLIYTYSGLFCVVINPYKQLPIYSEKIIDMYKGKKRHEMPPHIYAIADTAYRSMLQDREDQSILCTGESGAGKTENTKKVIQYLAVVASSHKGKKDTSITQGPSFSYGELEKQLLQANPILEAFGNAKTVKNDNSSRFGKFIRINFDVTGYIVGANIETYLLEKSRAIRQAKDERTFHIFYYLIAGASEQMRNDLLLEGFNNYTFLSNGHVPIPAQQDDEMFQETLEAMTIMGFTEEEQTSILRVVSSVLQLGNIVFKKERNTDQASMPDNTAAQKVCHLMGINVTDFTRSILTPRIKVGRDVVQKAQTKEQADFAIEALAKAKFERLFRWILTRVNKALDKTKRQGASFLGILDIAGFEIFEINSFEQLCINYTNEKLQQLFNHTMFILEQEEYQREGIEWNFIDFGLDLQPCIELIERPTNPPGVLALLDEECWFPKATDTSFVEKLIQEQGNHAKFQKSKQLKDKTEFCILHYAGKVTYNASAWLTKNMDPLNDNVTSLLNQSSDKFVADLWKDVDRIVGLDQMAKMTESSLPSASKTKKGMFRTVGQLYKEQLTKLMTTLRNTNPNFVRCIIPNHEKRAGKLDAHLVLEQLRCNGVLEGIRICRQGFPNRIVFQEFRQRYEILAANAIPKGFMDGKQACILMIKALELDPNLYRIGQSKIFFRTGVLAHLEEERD
Method in brief: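 Amplex red fluorescence (480 nm excitation, 615 nm emission) tracked ATP hydrolysis by smooth muscle S1 crosslinked to actin with carbodiimide/N-hydroxysuccinimide. Reactions contained 0.15 mM ATP and 100 mM KCl at pH 7.00, 22° C. IC50 came from a four-parameter logistic fit.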

**Q.** For CC(C)(C)OC(=O)NCCn1ccc(CNC(=O)c2ccc(-c3cc[nH]n3)nc2NCCc2cccc(F)c2)n1 [N-[(1-{2-[(tert-butoxy)carbonylamino]ethyl}pyrazol-3-yl)methyl](2-{[2-(3-fluorophenyl)ethyl]amino}-6-pyrazol-3-yl(3-pyridyl))carboxamide], which IC50 is on record?
**A.** Its IC50 is 12000 nM.

**Q.** Which IC50 does the source give for CC(C)(C)OC(=O)NCCn1ccc(CNC(=O)c2ccc(-c3ccccc3C#N)nc2NCCc2cccc(F)c2)n1 [N-[(1-{2-[(tert-butoxy)carbonylamino]ethyl}pyrazol-3-yl)methyl](6-(2-cyanophenyl)-2-{[2-(3-fluorophenyl)ethyl]amino}(3-pyridyl))carboxamide] here?
**A.** The IC50 was 2730 nM.

**Q.** Which IC50 does the source give for CC(C)(C)OC(=O)NCCn1nccc1CNC(=O)c1ccc(-c2ccccc2C#N)nc1NCCc1cccc(F)c1 [N-[(1-{2-[(tert-butoxy)carbonylamino]ethyl}pyrazol-5-yl)methyl](6-(2-cyanophenyl)-2-{[2-(3-fluorophenyl)ethyl]amino}(3-pyridyl))carboxamide] here?
**A.** Its IC50 is 2200 nM.

**Q.** CC(C)(C)OC(=O)NCCN1CCCC1CNC(=O)c1ccc(-c2ccccc2C#N)nc1NCCc1cccc(F)c1 (stereo not drawn) [N-[(1-{2-[(tert-butoxy)carbonylamino]ethyl}pyrrolidin-2-yl)methyl](6-(2-cyanophenyl)-2-{[2-(3-fluorophenyl)ethyl]amino}(3-pyridyl))carboxamide] was tested. Which IC50 did it give?
**A.** The IC50 was 4830 nM.

**Q.** Cn1cc(-c2ccc(C(=O)NCC3CCN(CCCNC(=O)OC(C)(C)C)C3=O)c(NCCc3cccc(F)c3)n2)cn1 (stereo not drawn) [N-[(1-{3-[(tert-butoxy)carbonylamino]propyl}-2-oxopyrrolidin-3-yl)methyl](2-{[2-(3-fluorophenyl)ethyl]amino}-6-(1-methylpyrazol-4-yl)(3-pyridyl))carboxamide] was tested. Which IC50 did it give?
**A.** Its IC50 is 699 nM.

**Q.** For CC(C)(C)OC(=O)NCCCN1CCC(CNC(=O)c2ccc(-c3cn[nH]c3)nc2NCCc2cccc(F)c2)C1=O (stereo not drawn) [N-[(1-{3-[(tert-butoxy)carbonylamino]propyl}-2-oxopyrrolidin-3-yl)methyl](2-{[2-(3-fluorophenyl)ethyl]amino}-6-pyrazol-4-yl(3-pyridyl))carboxamide], which IC50 is on record?
**A.** The IC50 was 589 nM.

**Q.** CC(C)(C)OC(=O)NCCCN1CCC(CNC(=O)c2ccc(-c3ccccc3C#N)nc2NCCc2cccc(F)c2)C1=O (stereo not drawn) [N-[(1-{3-[(tert-butoxy)carbonylamino]propyl}-2-oxopyrrolidin-3-yl)methyl](6-(2-cyanophenyl)-2-{[2-(3-fluorophenyl)ethyl]amino}(3-pyridyl))carboxamide] was tested. Which IC50 did it give?
**A.** Its IC50 is 104 nM.

**Q.** For CC(C)(C)OC(=O)NCCCN1C(=O)CCCC1CNC(=O)c1ccc(-c2ccccc2C#N)nc1NCCc1cccc(F)c1 (stereo not drawn) [N-[(1-{3-[(tert-butoxy)carbonylamino]propyl}-6-oxo(2-piperidyl))methyl](6-(2-cyanophenyl)-2-{[2-(3-fluorophenyl)ethyl]amino}(3-pyridyl))carboxamide], which IC50 is on record?
**A.** The IC50 was 877 nM.

**Q.** CC(C)(C)OC(=O)NCCCN1C(=O)CCCCC1CNC(=O)c1ccc(-c2ccccc2C#N)nc1NCCc1cccc(F)c1 (stereo not drawn) [N-[(1-{3-[(tert-butoxy)carbonylamino]propyl}-7-oxoazaperhydroepin-2-yl)methyl](6-(2-cyanophenyl)-2-{[2-(3-fluorophenyl)ethyl]amino}(3-pyridyl))carboxamide] was tested. Which IC50 did it give?
**A.** The IC50 was 17200 nM.

**Q.** For CC(C)(C)OC(=O)NCCCN1CCCC1CNC(=O)c1ccc(-c2ccccc2C#N)nc1NCCc1cccc(F)c1 (stereo not drawn) [N-[(1-{3-[(tert-butoxy)carbonylamino]propyl}pyrrolidin-2-yl)methyl](6-(2-cyanophenyl)-2-{[2-(3-fluorophenyl)ethyl]amino}(3-pyridyl))carboxamide], which IC50 is on record?
**A.** Its IC50 is 2080 nM.

**Q.** Which IC50 does the source give for CC(C)(C)OC(=O)N[C@H](CO)C(=O)N1CC[C@@H]1CNC(=O)c1ccc(-c2ccccc2C#N)nc1NCCc1cccc(F)c1 [N-[(1R)-2-((2R)-2-{[(6-(2-cyanophenyl)-2-{[2-(3-fluorophenyl)ethyl]amino}(3-pyridyl))carbonylamino]methyl}azetidinyl)-1-(hydroxymethyl)-2-oxoethyl](tert-butoxy)carboxamide] here?
**A.** Its IC50 is 439 nM.

**Q.** For C[C@@H](NC(=O)OC(C)(C)C)C(=O)N1CCC[C@@H]1CNC(=O)c1ccc(-c2ccccc2C#N)nc1NCCc1cccc(F)c1 [N-[(1R)-2-((2R)-2-{[(6-(2-cyanophenyl)-2-{[2-(3-fluorophenyl)ethyl]amino}(3-pyridyl))carbonylamino]methyl}pyrrolidinyl)-1-methyl-2-oxoethyl](tert-butoxy)carboxamide], which IC50 is on record?
**A.** The IC50 was 3940 nM.

**Q.** For Cn1cc(-c2nc(NCCc3cccc(F)c3)c(C(=O)NCC3COC(C)(C)OC3)cc2F)cn1 [N-[(2,2-dimethyl(1,3-dioxan-5-yl))methyl](5-fluoro-2-{[2-(3-fluorophenyl)ethyl]amino}-6-(1-methylpyrazol-4-yl)(3-pyridyl))carboxamide], which IC50 is on record?
**A.** The IC50 was 2230 nM.

**Q.** How did the IC50 turn out when CC1(C)OCC(CNC(=O)c2cc(F)c(-c3cn[nH]c3)nc2NCCc2cccc(F)c2)CO1 [N-[(2,2-dimethyl(1,3-dioxan-5-yl))methyl](5-fluoro-2-{[2-(3-fluorophenyl)ethyl]amino}-6-pyrazol-4-yl(3-pyridyl))carboxamide] was run?
**A.** Its IC50 is 927 nM.

**Q.** Which IC50 does the source give for CC1(C)OCC(CNC(=O)c2ccc(-c3ccccc3C#N)nc2NCCc2cccc(F)c2)CO1 [N-[(2,2-dimethyl(1,3-dioxan-5-yl))methyl](6-(2-cyanophenyl)-2-{[2-(3-fluorophenyl)ethyl]amino}(3-pyridyl))carboxamide] here?
**A.** Its IC50 is 1020 nM.

**Q.** With N#Cc1ccccc1-c1ccc(C(=O)NCc2cccnc2N)c(NCCc2cccc(F)c2)n1 [N-[(2-amino(3-pyridyl))methyl](6-(2-cyanophenyl)-2-{[2-(3-fluorophenyl)ethyl]amino}(3-pyridyl))carboxamide] as the molecule, how does the IC50 read?
**A.** The IC50 was 22 nM.

**Q.** For N#Cc1ccccc1-c1ccc(C(=O)NCc2cccnc2Cl)c(NCCc2cccc(F)c2)n1 [N-[(2-chloro(3-pyridyl))methyl](6-(2-cyanophenyl)-2-{[2-(3-fluorophenyl)ethyl]amino}(3-pyridyl))carboxamide], which IC50 is on record?
**A.** The IC50 was 72 nM.

**Q.** Which IC50 does the source give for CC(C)(C)OC(=O)NCCc1ncccc1CNC(=O)c1ccc(-c2ccccc2C#N)nc1NCCc1cccc(F)c1 [N-[(2-{2-[(tert-butoxy)carbonylamino]ethyl}(3-pyridyl))methyl](6-(2-cyanophenyl)-2-{[2-(3-fluorophenyl)ethyl]amino}(3-pyridyl))carboxamide] here?
**A.** Its IC50 is 470 nM.

**Q.** Which IC50 does the source give for O=C(NCc1ccc(-c2ccccc2)nc1NCCc1cccc(F)c1)Nc1cccnc1 [N-[(2-{[2-(3-fluorophenyl)ethyl]amino}-6-phenyl(3-pyridyl))methyl](3-pyridylamino)carboxamide] here?
**A.** Its IC50 is 71000 nM.

**Q.** Cc1cc(C(=O)NCc2cccnc2CNC(=O)OC(C)(C)C)c(NCCc2cccc(F)c2)nc1-c1cnn(C)c1 [N-[(2-{[(tert-butoxy)carbonylamino]methyl}(3-pyridyl))methyl](2-{[2-(3-fluorophenyl)ethyl]amino}-5-methyl-6-(1-methylpyrazol-4-yl)(3-pyridyl))carboxamide] was tested. Which IC50 did it give?
**A.** Its IC50 is 1120 nM.

**Q.** How did the IC50 turn out when CC(C)(C)OC(=O)NCc1ncccc1CNC(=O)c1ccc(-c2cnn(CCO)c2)nc1NCCc1cccc(F)c1 [N-[(2-{[(tert-butoxy)carbonylamino]methyl}(3-pyridyl))methyl](2-{[2-(3-fluorophenyl)ethyl]amino}-6-[1-(2-hydroxyethyl)pyrazol-4-yl](3-pyridyl))carboxamide] was run?
**A.** The IC50 was 15000 nM.
